row,Structure (SMILES),melting point [°C]
1,Fc1c(F)c(Br)c2nsnc2c1Br,148 to 149
2,CCN1C(=O)NC(Cc2c[nH]c3ccccc23)C1CCc1cc(C(F)(F)F)cc(C(F)(F)F)c1 (stereo not given),228 to 230
3,Cc1nc(Sc2ncccc2C(=O)O)sc1CC(=O)O,233 to 235
4,C(#Cc1ccc(C=CC2=CC(c3ccc(C#Cc4ccccc4)cc3)N(c3ccccc3)N2)cc1)c1ccccc1 (stereo not given),212 to 214
5,Cn1cc(C2=C(c3c4n(c5ccccc35)CC(CCO)CC4)C(=O)NC2=O)c2ccccc21 (stereo not given),236 to 238
6,Cc1nc(CCc2nc3ccc(F)cc3c(=O)n2-c2cccnc2C)cs1,151 to 153
7,COC(=O)c1cc(F)c(O)nc1O,208 to 213
8,O=[N+]([O-])c1ccc(NCCO)nc1NCCO,130 to 131
9,CCCCn1c(S)nnc1C(=O)O,108 to 110
10,Cc1cc(NC(=O)c2c(Cl)cccc2Cl)c2nccc(-n3ccnc3)c2c1,260 to 261
11,COc1ccccc1CNc1ccc2cc(Nc3ncc(C(F)(F)F)o3)ccc2n1,166
12,COc1cc(COc2nn(Cc3ccc(Oc4ccccc4)cc3)cc2C(N)=O)ccc1OCc1nc(-c2ccco2)oc1C,105 to 106
13,N#Cc1ccc(OCC(F)(F)F)c(F)c1,62 to 67
14,O=C1c2ccccc2C(=O)N1Oc1ccc(-c2nc(=O)c3ccccc3s2)cn1,212 to 213
15,COc1cc(C)c(Cc2cnc(N)nc2N)cc1OC,223 to 225
16,Cc1cnc(C#Cc2ccccc2)s1,82 to 83
17,CCOC(=O)c1cc2cc(C(F)(F)F)cnc2n1Cc1ccccc1,72 to 73
18,CCON(C(=O)c1cn(C)nc1C(F)F)C(C)Cc1c(Cl)cc(Cl)cc1Cl (stereo not given),111 to 114
19,CN(C)C(=O)c1cc(C(C)(C)C)c(O)c(C(C)(C)C)c1,173 to 174
20,O=c1c(OCCCCl)c(-c2ccc(OCc3ccccc3)c(OCc3ccccc3)c2)oc2cc(OCc3ccccc3)ccc12,136 to 137

row,Structure (SMILES),melting point [°C]
1,CCCCCCC[C@H]1O[C@H]1C(=O)O,53 to 55
2,N#Cc1cccc(-c2nc3sccn3c2-c2ccnc(N[C@@H]3CCCN(S(=O)(=O)c4ccc(Cl)cc4)C3)n2)c1,144 to 146
3,Cc1ccc(O)cc1N=C(c1ccccc1)c1ccccc1,106 to 108
4,CC[C@H](C)[C@H](NC(=O)O[C@@H](CC(C)C)C(=O)OCc1ccccc1)C(=O)NC(C)C,90 to 92
5,O=C1OC(=Nc2ccc(Cl)cc2F)C2=C1CCCC2,81 to 84
6,O=c1oc2c(c(O)c1Sc1nc3ccccc3o1)c(=O)n(Cc1ccccc1)c1ccccc21,196 to 198
7,CC(C)(C)n1cc(CN(Cc2cn(CCO)nn2)Cc2cn(C(C)(C)C)nn2)nn1,82 to 83
8,COc1cc(CN2CCN(c3cccc(C)c3Cl)CC2)cc(OC)c1OC,112 to 113
9,OC(CCn1ccnc1)c1ccccc1 (stereo not given),106 to 108
10,CCOC(=O)CCc1cc(C(=O)c2cccc(C(=O)OCC)c2)ccc1/C=C\CCCCO,48 to 50
11,COc1ccccc1CNc1nc(Cl)nc2c1ncn2[C@@H]1SC[C@@H](O)[C@H]1O,188
12,CNc1ccc([N+](=O)[O-])cc1N,171 to 173
13,CCCNC(=O)C1CCCN1C(=O)OCc1ccccc1 (stereo not given),74 to 75
14,C(=NNc1ccccc1)c1ccccn1,179
15,NCc1ccccc1-c1ccc(C(=O)N2Cc3ccc(C(=O)NCc4cccnc4)n3Cc3ccccc32)cc1,115 to 120
16,CCOC(=O)Cn1c(=O)n(-c2ccccc2Cl)c(=O)c2c(C)c(C(=O)OCC)c(C)cc21,158 to 159
17,O=C1CNC(=O)N1c1ccc([N+](=O)[O-])cc1,250 to 251
18,Nc1nc2ccccc2c2c1ncn2CCCCNC(=O)c1ccc(Cn2c(N3CCCC3)nc3ccccc32)cc1,150 to 153
19,CCCCCCCCOc1ccc(C(N)=O)c(O)c1,123 to 124
20,CCCOC(=O)C1CCC2C3CCC4CC(O)C(O)CC4(C)C3C(NCCC(C)C)CC12C (stereo not given),140 to 142

# The next lines start with the values.
row,melting point [°C],Structure (SMILES)
1,140 to 142,CCOC(=O)c1ccc(N)c(OCC#N)c1
2,108 to 110,"CC(O)c1ccc(-c2ccc(C(=O)OCc3ccc(Cl)cc3)cc2)cc1 (single isomer, unassigned; (+))"
3,184 to 185,CC1=C(C(=O)OC(C)C)C(c2cccc([N+](=O)[O-])c2)N(C(=O)NCc2ccccc2)C(=O)N1 (stereo not given)
4,72 to 76.5,COc1ccc(CC(Cc2ccccc2)C(=O)O)cc1 (stereo not given)
5,120,CCN(O)C(=O)CCc1ccc2c(c1)C(=O)c1ccccc1CO2
6,108 to 110,CC(C)(C)OC(=O)N[C@H](Cc1ccccc1)C(=O)N1CCC[C@H]1C(=O)NC1CCc2n[nH]cc2C1 (stereo not given in full)
7,180 to 181,CCS(=O)(=O)c1ccc(-c2coc3ccc(-c4nnc(C)o4)cc23)cc1
8,135 to 138,CN(O)C(=O)c1ccc(C=Cc2ccccn2)cc1
9,85,CC1(C)CC(=O)c2c(NCCCn3ccnc3)sc(-c3cc[nH]n3)c2C1
10,168,CC(C)(C)C(=O)NCCC(=O)NC1CCCCC1Nc1cccc2c1C(=O)c1ccccc1C2=O (stereo not given)
11,161,CCCCCC1=NNC(C)=C(C(=O)NN)C1c1ccccc1 (stereo not given)
12,225 to 227,CCC(C#N)C(=O)Nc1ccc(C2=NNC(=O)CC2C)cc1 (stereo not given)
13,168 to 170,CC(C)c1ccc2c(c1)CCC1C(C)(C(=O)O)CCCC21C (stereo not given)
14,235,O=C(Nc1nc(C(F)(F)F)co1)C1c2ccccc2Oc2ccc(Cl)cc21 (racemic)
15,243 to 244,Cc1ccc2c(c1)C(=O)N(C)CC(=O)N2
16,164 to 165,CCn1c2ccccc2c2cc(C=C(C#N)c3ccc(C(F)(F)F)cc3)ccc21
17,216 to 217,CC(C)c1ccc2oc(=O)c(NC(=O)Nc3ccc(F)cc3F)c(-c3ccc(F)cc3)c2c1
18,43 to 45,COC(=O)c1ccccc1-c1ccc(COS(C)(=O)=O)cc1
19,112 to 115,CSC1CC(c2cc(Cl)c(C)c(Cl)c2)=NNC1=O (stereo not given)
20,228,O=C(O)CCCC(=O)N[C@@H](Cc1ccc(-c2ccccc2)cc1)C(=O)NCCCCNc1ncccn1
21,360 to 364,NC(=O)c1nc(-c2cccc(O)c2)nc2c1[nH]c(=O)n2-c1ccc(C(F)(F)F)cc1
22,179 to 180,S=C(Nc1ccc(Cl)cc1)Nc1ncccc1OCc1c(Cl)cccc1Cl
23,115,COc1ccc(-c2ccncc2)cc1-c1ccc(F)c(Cl)c1
24,154,COc1cc2c(c(C(=O)c3ccccc3)c1)NC(=O)C2
25,193 to 195,CC(=O)NC[C@H]1CN(c2ccc(C3CCN(c4nnc(C)s4)CC3)c(F)c2)C(=O)O1
26,156 to 157,CCCCC(=O)Nc1c(C)c(C)c2c(c1C)C(c1ccc(C)cc1)C(C)(C)O2 (stereo not given)
27,263 to 264,COC(=O)C1=C(C)Nc2nccn2C1c1cccc([N+](=O)[O-])c1 (stereo not given)
28,258 to 261,O=C(Nc1ccc(CN2C(=O)CNC2=O)cc1)c1cc(=O)c2ccccc2o1
29,58 to 59,COc1cccc(CCCC(=O)O)c1OC
30,267 to 269,COC(=O)c1ccc(-c2nn(-c3ccc(C(N)=O)cc3)c3ccccc23)cc1

# — a melting point compilation (Tetko et al.; mined from patent text by program, amines drawn as free bases though some values may be those of a salt)
